Reference: ChEMBL document CHEMBL1201862, “PubChem BioAssay data set” (2004)
Activity calls are given as the source filed them.

Experiments:
[1] = Luminescence-based cell-based high throughput dose response assay to identify activators of the DAF-12 from the parasite S. stercoralis (ssDAF-12).; type: functional
[2] = target: T1, Oxysterols receptor LXR-beta (Homo sapiens, UniProt P55055); assay: LXR agonists, Gal4 luciferase reporter, dose response, counter-screen for ssDAF-12 agonist project, cell-based, luminescence, HEK293, S. stercoralis campaign (AID 720737); type: functional; settings: read-out: IC50 (the source's name)
T1 sequence (P55055 whole entry): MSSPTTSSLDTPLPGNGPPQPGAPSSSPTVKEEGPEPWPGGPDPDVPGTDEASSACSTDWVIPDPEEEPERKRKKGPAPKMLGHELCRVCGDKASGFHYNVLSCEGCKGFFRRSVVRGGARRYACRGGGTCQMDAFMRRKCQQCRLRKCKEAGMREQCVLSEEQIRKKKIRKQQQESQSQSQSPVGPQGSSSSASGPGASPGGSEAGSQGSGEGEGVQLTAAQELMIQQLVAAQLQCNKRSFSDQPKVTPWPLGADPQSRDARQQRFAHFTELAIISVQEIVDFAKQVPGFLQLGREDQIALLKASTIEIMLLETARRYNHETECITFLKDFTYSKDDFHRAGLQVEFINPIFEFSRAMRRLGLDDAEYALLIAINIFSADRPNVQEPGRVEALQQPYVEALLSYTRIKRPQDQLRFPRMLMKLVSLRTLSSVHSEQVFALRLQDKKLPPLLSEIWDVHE

[3] = P. falciparum Dd2 growth inhibitors, dose response, SYBR Green, dry powder samples, set 9 (AID 1159568); type: functional, cell-based
[4] = P. falciparum Dd2 blood-stage growth inhibition, dose response, SYBR Green fluorescence, erythrocytes, dry powder, set 2 (AID 1159574); type: functional, cell-based
fMet-Leu-Phe receptor = fMet-Leu-Phe receptor (Homo sapiens, UniProt P21462); assay: FPR ligands, dose response (AID 519); type: functional
[5] = target: RNA-editing ligase 1, mitochondrial (Trypanosoma brucei brucei, UniProt P86926); assay: TbREL1 ligase inhibitors, dose response, biochemical, fluorescence, Trypanosoma brucei (AID 1117295); type: functional
[6] = P. falciparum Dd2 growth inhibitors, dose response, SYBR Green, dry powder samples (AID 1159566); type: functional, cell-based;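 further: potency for growth inhibition with lower SYBR green DNA signal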
[7] = HepG2 cell cytotoxicity, dose response, cytotoxicity control, plate reader, dry powder samples (AID 1159569); type: functional, cell-based;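 further: inhibitor potency with signal falling toward the positive control level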
[8] = P. falciparum ATP4 D1247Y mutant growth inhibitors, dose response, NITD609-resistant line, SYBR Green, dry powder (AID 1159571); type: functional, cell-based;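 further: parasites synchronized at ring stage by sorbitol before testing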
[9] = P. falciparum Dd2 growth inhibitors, dose response, SYBR Green, cherry-picked samples (AID 1159567); type: functional, cell-based
[10] = P. falciparum 3D7-ScDHODH growth inhibitors, dose response, SYBR Green, dry powder samples (AID 1159570); type: functional, cell-based;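 further: parasite growth measured after 72 hours of compound exposure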
[11] = TB: CFU replicating Measured in Microorganism System Using Imaging - 7108-05_Inhibitor_Dose_DryPowder_Activity_Set2.; type: functional
HEK293 = assay: HEK293T cell cytotoxicity, dose response, cytotoxicity control, ATP luminescence, cherry-pick samples (AID 687005); type: functional, cell-based; settings: Homo sapiens;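 further: cells exposed to compound for 48 hours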
[12] = HEK293 Cytotoxicity Assay Measured in Cell-Based System Using Plate Reader - 7071-01_Inhibitor_Dose_CherryPick_Activity_Set2.; type: functional
HeLa = assay: HeLa cell cytotoxicity, dose response, cytotoxicity control, ATP luminescence, cherry-pick samples (AID 687004); type: functional, cell-based; settings: Homo sapiens
INS1 = assay: beta cell apoptosis inhibitors, cytokine rescue, dose response, luminescence, retest (AID 449756); type: functional, cell-based; settings: Rattus norvegicus;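 further: cell death triggered by IL-1 beta plus TNF-alpha plus IFN-gamma mixture; protective hits raise ATP signal compared with cytokine alone wells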
[13] = cytotoxicity toward NIH3T3 fibroblasts, dose response, counter-screen, cell-based, ATP luminescence, mouse fibroblasts (AID 2010); type: functional;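 further: cells exposed to compound for about 90 hours before reading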
Coagulation factor XII = target: T2, Coagulation factor XII (Homo sapiens, UniProt P00748); type: functional;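 further: activated factor XIIa alpha cleaving a fluorogenic AMC peptide substrate; inhibitor potency from loss of enzyme activity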
T2 sequence (P00748 whole entry): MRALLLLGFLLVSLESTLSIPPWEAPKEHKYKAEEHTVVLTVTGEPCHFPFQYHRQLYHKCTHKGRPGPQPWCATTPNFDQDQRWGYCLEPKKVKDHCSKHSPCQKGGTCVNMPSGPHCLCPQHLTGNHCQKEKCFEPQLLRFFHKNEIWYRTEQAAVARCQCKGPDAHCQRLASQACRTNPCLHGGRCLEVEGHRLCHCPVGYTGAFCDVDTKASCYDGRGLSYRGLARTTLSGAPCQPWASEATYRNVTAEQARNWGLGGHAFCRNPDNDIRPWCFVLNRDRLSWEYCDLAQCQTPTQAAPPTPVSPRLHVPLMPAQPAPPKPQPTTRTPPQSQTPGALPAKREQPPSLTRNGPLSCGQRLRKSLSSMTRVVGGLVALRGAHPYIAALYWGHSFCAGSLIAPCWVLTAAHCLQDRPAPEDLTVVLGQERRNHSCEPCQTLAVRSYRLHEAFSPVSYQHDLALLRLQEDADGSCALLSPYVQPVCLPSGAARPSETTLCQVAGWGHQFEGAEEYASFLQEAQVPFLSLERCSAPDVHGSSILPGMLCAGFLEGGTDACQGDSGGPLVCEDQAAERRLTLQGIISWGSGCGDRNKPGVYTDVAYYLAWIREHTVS

[14] = inhibitors of intracellular T. cruzi replication, confirmation, NIH3T3 host cells, beta-gal luminescence (AID 2044); type: functional, cell-based;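 further: intracellular parasites grown in NIH/3T3 mouse fibroblasts as host cells; luminescent beta-galactosidase reporter signal from transgenic T. cruzi replicating inside host cells; inhibitors lower the luminescence signal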
[15] = inhibitors of Vif binding to APOBEC3G peptide, primary screen, biochemical, TR-FRET, GST-Vif 1-94, biotin-A3G peptide, dose response retest (AID 1117319); type: functional;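 further: TR-FRET signal of purified GST-Vif binding a biotinylated A3G peptide; inhibitors lower the FRET signal by blocking Vif and A3G binding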
[16] = Vero cell cytotoxicity, dose response, cytotoxicity control for Vif-APOBEC3G degradation inhibitor project, Vero cells (AID 1117358); type: functional; settings: Human immunodeficiency virus 1, Vero

Chain of RNA-editing ligase 1, mitochondrial (P86926 whole entry): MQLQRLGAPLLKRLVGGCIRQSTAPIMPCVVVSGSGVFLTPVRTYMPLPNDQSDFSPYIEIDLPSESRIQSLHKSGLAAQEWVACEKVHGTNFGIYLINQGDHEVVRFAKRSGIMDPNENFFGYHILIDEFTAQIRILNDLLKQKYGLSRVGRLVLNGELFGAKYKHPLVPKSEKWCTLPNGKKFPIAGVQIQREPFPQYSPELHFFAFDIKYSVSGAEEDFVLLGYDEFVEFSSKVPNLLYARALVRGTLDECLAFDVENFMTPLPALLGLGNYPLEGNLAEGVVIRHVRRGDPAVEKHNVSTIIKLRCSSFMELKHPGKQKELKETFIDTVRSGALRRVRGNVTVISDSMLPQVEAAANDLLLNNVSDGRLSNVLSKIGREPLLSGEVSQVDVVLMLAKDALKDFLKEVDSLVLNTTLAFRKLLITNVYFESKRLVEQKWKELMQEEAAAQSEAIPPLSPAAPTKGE
Chain of fMet-Leu-Phe receptor (P21462 whole entry): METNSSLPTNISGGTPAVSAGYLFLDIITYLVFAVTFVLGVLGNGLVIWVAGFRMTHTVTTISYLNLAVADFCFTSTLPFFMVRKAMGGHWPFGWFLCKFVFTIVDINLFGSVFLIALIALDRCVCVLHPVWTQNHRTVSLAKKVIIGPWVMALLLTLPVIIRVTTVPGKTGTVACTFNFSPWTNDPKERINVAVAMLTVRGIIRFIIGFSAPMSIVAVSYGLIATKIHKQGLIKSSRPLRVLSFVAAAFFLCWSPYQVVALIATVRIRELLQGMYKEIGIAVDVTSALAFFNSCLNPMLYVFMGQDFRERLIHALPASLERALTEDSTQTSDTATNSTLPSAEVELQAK

## O=C(Cc1ccccc1[N+](=O)[O-])NCCc1ccc(F)cc1
[1]
  IC50: > 67.6 µM (inactive)
[2]
  EC50: > 67.6 µM (inactive)

## Cc1ccc(S(=O)(=O)N(C)C[C@@H]2Oc3cc(C#CC4CCCC4)ccc3S(=O)(=O)N([C@@H](C)CO)C[C@H]2C)cc1
[3]
  AC50: 1.33 µM (active)

## COc1ccc(S(=O)(=O)N(C)C[C@H]2OCc3ccccc3-c3c(n(C)c4ccccc34)C(=O)N([C@H](C)CO)C[C@H]2C)cc1
[4]
  AC50: 6.22 µM (active)

## COC(=O)c1[nH]c(C)c(C(=O)C2=C(O)C(=O)N(CCN3CCOCC3)C2c2cccs2)c1C (stereo unspecified)
fMet-Leu-Phe receptor
  Ki: 5 µM (active)

## COC(=O)C1=C(C)N(Cc2ccccc2C(F)(F)F)C(NCc2ccc(OC)cc2)=NC1c1cccc(Cl)c1 (stereo unspecified)
[5]
  IC50: > 96.6 µM (inactive)

## COc1ccc(C#Cc2ccc([C@@H]3[C@@H](CO)N4CCCCN(C(=O)Nc5ccccc5F)C[C@H]34)cc2)cc1
[6]
  AC50: 0.8 µM (active)
[7]
  AC50: 15.7 µM (active)
[8]
  AC50: 1.45 µM (active)
[9]
  AC50: 1.89 µM (active)
[10]
  AC50: 1.37 µM (active)

## Cc1cccc(C(=O)Nc2nc3ccccc3n2C)c1
[11]
  AbsAC90: 360.23 µM

## C[C@@H]1CN([C@@H](C)CO)S(=O)(=O)c2ccc(C#Cc3ccccn3)cc2O[C@H]1CN(C)Cc1ccccc1
HEK293
  AC50: 7.04 µM (active)
[12]
  AC50: 7.04 µM (active)
HeLa
  AC50: 39.1 µM (active)

## Cc1ccccc1N1CCN(Cc2c[nH]c3ccccc23)CC1
INS1
  AC50: 7.61 µM (active)
[13]
  EC50: > 60 µM (not active)
Coagulation factor XII
  IC50: > 50 µM (inactive)
[14]
  EC50: 0.623 µM (active)
[15]
  IC50: > 100 µM (active)
[16]
  CC50: > 40 µM (active)
